# Test results published in article PMC8597046, “Use of Mixture Dosing and Nonlinear Mixed Effect Modeling of Eight Environmental Contaminants in Rabbits to Improve Extrapolation Value of Toxicokinetic Data” (Environmental Health Perspectives, 2021).
# Key:
# [1] = TK assay, intravenous mixture dosing: serum concentrations and noncompartmental analysis (sparse data); details: for Serum concentration: IV
# Method in brief: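 Female New Zealand white rabbits received a compound mixture IV via ear-vein catheter; serum sampled sparsely (3 rabbits/time point) from 15 min to 28 d. Noncompartmental sparse-data analysis on mean profiles: linear-trapezoidal AUC, CL as dose/AUC0−inf, half-life from λZ, MRT and VSS.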
# [2] = TK assay, oral mixture dosing: serum concentrations and noncompartmental analysis (sparse data); details: for Serum concentration: oral
# Method in brief: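 Female New Zealand white rabbits (10-wk, 2.37±0.14kg) got the compound mixture IV via ear-vein catheter or orally into the mouth; serum sampled 15 min to 28 d, 3 (or 6 at 30 min) rabbits per time. Sparse-data noncompartmental analysis gave AUC (linear trapezoidal), CL or CL_F, half-life and F.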
# [3] = Chronic exposure: daily oral mixture for 17 wk, steady-state serum concentrations; details: serum, mean±SD, n=16, after 17 weeks of oral mixture; MEHP after DEHP dosing
# Method in brief: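 Female New Zealand white rabbits (INRA 1777 line, 2 wk old, n=16 treated, 16 vehicle controls) received an oral eight-compound mixture: loading plus maintenance dose, then daily maintenance dose for 17 wk. Dosing volume 1mL/kg adjusted weekly to predicted BW; serum obtained after clotting and centrifugation, stored at −20°C.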
# [4] = oral mixture dosing, NCA, n=12, MEHP after oral DEHP
structure (smiles),measurement,setting,value
"CCCCC(CC)COC(=O)c1ccccc1C(=O)O (stereo not shown) [MEHP, mono(2-ethylhexyl)phthalate]",CL,"[1]; IV mixture dosing, NCA, n=12",7.15 mL/min/kg
same,MRT,"[1]; IV mixture dosing, NCA, n=12",16.3 h
same,VSS,"[1]; IV mixture dosing, NCA, n=12",7.00 L/kg
same,VZ,"[1]; IV mixture dosing, NCA, n=12",7.85 L/kg
same,Serum concentration,"[1]; rabbit 1, 0.30 h",11380 nM
same,Serum concentration,"[1]; rabbit 1, 4.38 h",72 nM
same,Serum concentration,"[1]; rabbit 1, 24.03 h",< 18 nM
same,Serum concentration,"[1]; rabbit 2, 0.28 h",14440 nM
same,Serum concentration,"[1]; rabbit 2, 4.05 h",39 nM
same,Serum concentration,"[1]; rabbit 3, 0.35 h",3040 nM
same,Serum concentration,"[1]; rabbit 3, 4.05 h",59 nM
same,Serum concentration,"[1]; rabbit 4, 0.62 h",4130 nM
same,Serum concentration,"[1]; rabbit 4, 8.33 h",27.5 nM
same,Serum concentration,"[1]; rabbit 4, 72.00 h",< 18 nM
same,Serum concentration,"[1]; rabbit 5, 0.75 h",3760 nM
same,Serum concentration,"[1]; rabbit 5, 8.62 h",42 nM
same,Serum concentration,"[1]; rabbit 5, 72.03 h",< 18 nM
same,Serum concentration,"[1]; rabbit 6, 0.57 h",7060 nM
same,Serum concentration,"[1]; rabbit 6, 7.98 h",21 nM
same,Serum concentration,"[1]; rabbit 6, 71.97 h",36 nM
same,Serum concentration,"[1]; rabbit 7, 1.13 h",1210 nM
same,Serum concentration,"[1]; rabbit 7, 11.98 h",< 18 nM
same,Serum concentration,"[1]; rabbit 8, 1.12 h",820 nM
same,Serum concentration,"[1]; rabbit 8, 12.02 h",< 18 nM
same,Serum concentration,"[1]; rabbit 9, 1.03 h",720 nM
same,Serum concentration,"[1]; rabbit 9, 11.97 h",< 18 nM
same,Serum concentration,"[1]; rabbit 11, 2.08 h",480 nM
same,Serum concentration,"[1]; rabbit 12, 2.08 h",450 nM
same,AUC0−inf,"[1]; serum, IV mixture dosing, NCA, n=12",9.73 µM·h
same,Cmax,"[1]; serum, IV mixture dosing, NCA, n=12, doses in Table 2 r3, BPSG after BPS dosing",14400 nM
same,half-life,"[1]; terminal, IV mixture dosing, NCA, n=12",12.7 h
same,F (fraction of the dose of DEHP that has been metabolized into MEHP),"[2]; NCA, MEHP after oral DEHP vs IV MEHP, as fraction",0.99
same,MRT,[2]; [4],12.0 h
same,Tmax,[2]; [4],4.05 h
same,Serum concentration,"[2]; rabbit 13, 4.30 h, MEHP after oral DEHP",5150 nM
same,Serum concentration,"[2]; rabbit 14, 0.37 h, MEHP after oral DEHP",1090 nM
same,Serum concentration,"[2]; rabbit 14, 4.17 h, MEHP after oral DEHP",5840 nM
same,Serum concentration,"[2]; rabbit 15, 4.05 h, MEHP after oral DEHP",6870 nM
same,Serum concentration,"[2]; rabbit 15, 23.98 h, MEHP after oral DEHP",270 nM
same,Serum concentration,"[2]; rabbit 16, 0.55 h, MEHP after oral DEHP",1490 nM
same,Serum concentration,"[2]; rabbit 16, 8.22 h, MEHP after oral DEHP",2380 nM
same,Serum concentration,"[2]; rabbit 16, 72.00 h, MEHP after oral DEHP",33 nM
same,Serum concentration,"[2]; rabbit 17, 0.53 h, MEHP after oral DEHP",2290 nM
same,Serum concentration,"[2]; rabbit 17, 8.48 h, MEHP after oral DEHP",4200 nM
same,Serum concentration,"[2]; rabbit 17, 72.00 h, MEHP after oral DEHP",25 nM
same,Serum concentration,"[2]; rabbit 18, 0.55 h, MEHP after oral DEHP",2150 nM
same,Serum concentration,"[2]; rabbit 18, 8.00 h, MEHP after oral DEHP",3830 nM
same,Serum concentration,"[2]; rabbit 18, 71.96 h, MEHP after oral DEHP",91 nM
same,Serum concentration,"[2]; rabbit 19, 1.02 h, MEHP after oral DEHP",4160 nM
same,Serum concentration,"[2]; rabbit 19, 12.00 h, MEHP after oral DEHP",1610 nM
same,Serum concentration,"[2]; rabbit 20, 1.07 h, MEHP after oral DEHP",3160 nM
same,Serum concentration,"[2]; rabbit 20, 12.00 h, MEHP after oral DEHP",1930 nM
same,Serum concentration,"[2]; rabbit 21, 1.08 h, MEHP after oral DEHP",2800 nM
same,Serum concentration,"[2]; rabbit 21, 12.00 h, MEHP after oral DEHP",1910 nM
same,Serum concentration,"[2]; rabbit 22, 2.00 h, MEHP after oral DEHP",3290 nM
same,Serum concentration,"[2]; rabbit 23, 2.00 h, MEHP after oral DEHP",2930 nM
same,Serum concentration,"[2]; rabbit 24, 2.22 h, MEHP after oral DEHP",1570 nM
same,AUC0−inf,"[2]; serum, oral mixture dosing, NCA, n=12, MEHP after oral DEHP",65.2 µM·h
same,Cmax,"[2]; serum, oral mixture dosing, NCA, n=12, doses in Table 3 r3, MEHP measured after oral DEHP, BPSG after BPS",6870 nM
same,half-life,"[2]; terminal, oral mixture dosing, NCA, n=12, MEHP after oral DEHP",10.4 h
same,Observed CSS,[3],51±28 (MEHP) ng/mL
